“Also recorded” adds a separate entry of the source. Ends that are not written are not given here.

Experiment [1] deals with SHP-2 (Y542 and Y580 phosphorylation). Put plainly: Immunoblot of p-SHP-2 Y542 and Y580. To be noted: CRT-MG cells; PTPi IV 5 or 10 µM, 30 min; 5 mM H2O2, 10 min. Format: cell-based, human. As to the method: (§1) Figure 7 SHP-2 and CSK reciprocally regulate H2O2-induced Src activation. […] Tubulin was evaluated as a loading control. Bottom panel, Densitometric quantification of p-Src Y419 levels (empty bars) and p-Src Y530 levels (filled bars), normalized to the level of total Src. Results are expressed as percentage of H2O2-treated values in control siRNA presented as mean ± SD. (*p<0.05 vs. H2O2-treated cells transfected with control siRNA; #p<0.05 between SHP-2 siRNA-transfected cells and CSK siRNA-transfected cells; n = 3). (B) Inhibition of SHP-2 by PTPi IV attenuated the H2O2-induced activation of the Src signaling pathway. CRT-MG cells were treated with 5 mM H2O2 or not for 10 min in the presence of 5 or 10 µM PTPi IV for 30 min, and lysed in cold-RIPA buffer. Antibodies against p-SHP-2, SHP-2, p-Src, Src, p-FAK, FAK, p-ERK, ERK, and tubulin were used for immunoblotting. Bottom panel, Densitometric quantification of p-Src Y419 levels (empty bars) and p-Src Y530 levels (filled bars), normalized to the level of total Src. […] (p, phospho).
On the technique in general: Immunoblotting shows a protein as a band on a membrane.

Another experiment concerns ERK phosphorylation. In words: Immunoblot of p-ERK. Format: cell-based, human. To be noted: CRT-MG cells; PTPi IV 5 or 10 µM, 30 min; 5 mM H2O2, 10 min. Here is the method: (§2) Cells were plated and transfected with green fluorescence protein (GFP) siRNA (Samchully Pharm Co. Ltd., Seoul, Korea) as a control group and human CSK siRNA and human SHP-2 siRNA from Bioneer (Daejeon, Korea) using Lipofectamine RNAiMAX (Invitrogen, Carlsbad, CA, USA) according to the manufacturer’s instructions to achieve a final concentration of 300 nM.
as §1

The test system of experiment [2] is Src (Tyr 530 phosphorylation). Put plainly: Immunoblot of p-Src Y530. The format is cell-based, human. To be noted: CRT-MG cells; PTPi IV 0–10 µM, 30 min; 5 mM H2O2, 10 min; n = 3. Here is the method:
as §2, §1

The test system of experiment [3] is Src (Tyr 419 phosphorylation). Put plainly: Immunoblot of p-Src Y419. The format is cell-based, human. The settings on record: CRT-MG cells; PTPi IV 0–10 µM, 30 min; 5 mM H2O2, 10 min; n = 3. As to the method:
as §2, §1

For the next experiment, the system named is FAK phosphorylation. Put plainly: Immunoblot of p-FAK. Format: cell-based, human. To be noted: CRT-MG cells; PTPi IV 5 or 10 µM, 30 min; 5 mM H2O2, 10 min. As to the method: as §1
A further experiment addresses T1, recombinant GST-SHP-2 (Homo sapiens, UniProt Q06124).
T1 construct: purchased Abnova (Taipei, Taiwan)
T1 sequence (Q06124 1-593): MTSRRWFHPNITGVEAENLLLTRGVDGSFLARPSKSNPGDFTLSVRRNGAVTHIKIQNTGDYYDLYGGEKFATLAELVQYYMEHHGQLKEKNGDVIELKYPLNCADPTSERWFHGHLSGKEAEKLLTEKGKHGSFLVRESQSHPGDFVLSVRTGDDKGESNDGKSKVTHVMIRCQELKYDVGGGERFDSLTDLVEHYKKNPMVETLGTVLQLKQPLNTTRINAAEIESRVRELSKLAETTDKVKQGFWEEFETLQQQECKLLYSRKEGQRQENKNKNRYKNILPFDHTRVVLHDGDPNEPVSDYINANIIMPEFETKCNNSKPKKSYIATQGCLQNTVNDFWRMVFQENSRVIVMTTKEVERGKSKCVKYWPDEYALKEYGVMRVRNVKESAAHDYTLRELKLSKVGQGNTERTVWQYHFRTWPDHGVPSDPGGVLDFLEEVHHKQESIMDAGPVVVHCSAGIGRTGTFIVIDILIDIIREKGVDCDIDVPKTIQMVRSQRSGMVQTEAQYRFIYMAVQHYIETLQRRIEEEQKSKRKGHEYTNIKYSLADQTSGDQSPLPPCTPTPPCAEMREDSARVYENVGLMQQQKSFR
In words: Surface plasmon resonance, rGST-SHP-2. The format is binding. Here is the method:
(§3) SPR was performed on a SPRmicro system (K-MAC, Daejeon, Korea). A G1 chip (bare surface gold chip) was dipped into a 3 mM N-hydroxylsuccinimide self-assembled monolayer to form covalent bonds among protein amine groups. After washing with ethanol, the chip was purged with N2 gas. Recombinant GST-SHP-2 or GST-CSK was mixed with 20% ethylene glycol and then spotted onto the chip. Ligands were reacted on room temperature for 12 h to allow the ligands to become fixed onto the chip. After the reaction, the […] by washing with 1×Tris-buffered saline (TBS), and purged with N2 gas. SPR signal baselines were stabilized using 1×TBS running buffer, and different dilutions of caveolin-1 phosphopeptides (Cav-1 pY 14, GHL-pY-TVPIREQGN) in buffer were injected at a flow rate of 20 µL/min. Response unit (RU) alterations following sample reactions were analyzed by comparing affinities to the chip surface. Experiments were conducted by switching from samples immobilized on the chip (Cav-1 pY 14) to injected samples (rGST-CSK or rGST-SHP-2). […] Equilibrium binding curves and RU values are shown.
(§4) Figure 5 SPR and flow cytometric analyses of SHP-2 and CSK binding to phosphorylated-Tyr peptides of caveolin-1. […] After stringent wash, bound SHP-2 or CSK to caveolin-1 peptide conjugated beads were measured by Accuri C6 flow cytometer.
(SPR reads the build-up and loss of mass on a sensor chip optically.)

The next experiment has as its system recombinant GST-CSK. In words: Surface plasmon resonance, rGST-CSK. The format is binding. To be noted: rGST-CSK immobilized on G1 chip; peptide 10 to 1,000 µg/mL injected, 20 µL/min, 1×TBS; repeated twice. As to the method:
as §3, §4

Experiment [4] concerns CSK binding to p-caveolin-1 peptide. In words: Flow cytometric competitive binding assay (bound CSK on p-caveolin-1 peptide conjugated beads). Also noted: species or system human. To be noted: 10 µg recombinant CSK with SHP-2 protein 1–100 µg; flow cytometry; repeated twice. As to the method:
(§5) Human SHP-2 and CSK fusion constructs were produced by consecutively subcloning the protein coding regions of SHP-2 and CSK into the pGEX-6P-1 vector (GE healthcare, Piscataway, NJ, USA). Using these constructs, human SHP-2 and CSK were overexpressed in Escherichia coli (BL21) as soluble. Briefly, the transformed bacteria were grown in LB medium with 0.1 mg/ml ampicillin at 37°C to an A600 of 0.6, and then cultured for an additional overnight at 27°C after being induced with 0.5 mM IPTG (Duchefa Biochemie, Netherlands). The cells were harvested by centrifugation at 8000 g for 20 min, resuspended in PBS pH 7.4, and then disrupted by ultrasonication. The supernatant was purified with glutathione agarose 4B (Incospharm, Daejeon, South Korea) in PBS pH 7.4. The bound proteins were eluted with a linear gradient 10 mM glutathione in 50 mM Tris (pH 8.0). All proteins were concentrated with a Centricon apparatus (Miliipore, Darmstadt, Germany). Proteins were quantitated with the Bradford assay, then filtered and stored at −70°C until use. […]
Figure 6 Small interfering RNA targeting CSK facilitates H2O2-mediated binding between caveolin-1 and SHP-2. […] Fluorescent intensities were measured by Accuri C6 flow cytometer.

The test system of experiment [5] is recombinant SHP-2 protein. Put plainly: Bead-based flow cytometric binding assay, SHP-2. Further details: species or system human. To be noted: caveolin-1 (1–50 a.a.) peptide on carboxyl beads; SHP-2 protein 1–10 µg, 1 h, RT; flow cytometry; repeated twice. As to the method:
as §5, §4
On the technique in general: Flow cytometry measures light scatter and fluorescence of single cells or particles in a stream.

A further experiment relates to recombinant CSK protein. In words: Bead-based flow cytometric binding assay, CSK. Also noted: species or system human. To be noted: caveolin-1 (1–50 a.a.) peptide on carboxyl beads; CSK protein 1–10 µg, 1 h, RT; flow cytometry; repeated twice. As to the method: as §5, §4

Consider `CC(C)(c1ccc(NS(=O)(=O)C(F)(F)F)cc1)c1ccc(C(C)(C)c2ccc(NS(=O)(=O)C(F)(F)F)cc2)cc1` [PTPi IV], for which, in experiment [1], the “SHP-2 phosphorylation at Y542 and Y580” value was “significantly reduced”. The ERK phosphorylation result with ERK phosphorylation is recorded as “strongly inhibited; also recorded: reduced”. In addition, the “H2O2-mediated phosphorylation of Src at Tyr 530” value in experiment [2] was “no significant change”. The “H2O2-mediated phosphorylation of Src at Tyr 419” value in experiment [3] is “dose-dependent decrease”. Also, in the experiment with FAK phosphorylation, the FAK phosphorylation entry was “strongly inhibited; also recorded: reduced”.
Turning to “GHL-pY-TVPIREQGN [Cav-1 pY 14, synthetic peptide phosphorylated at a Tyr residue corresponding to Tyr 14 of caveolin-1]”, the “difference in kinetic rates or RUs, rGST-SHP-2 versus rGST-CSK” value on recombinant GST-SHP-2 (rGST-SHP-2 compared with rGST-CSK, immobilized on G1 chip, peptide 10 to 1,000 µg/mL) is given as “no significant difference in their kinetic rates or RUs”. The SPR binding affinity entry on recombinant GST-SHP-2 (rGST-SHP-2 immobilized on G1 chip, peptide 10 to 1,000 µg/mL injected, 20 µL/min, 1×TBS, repeated twice) is listed as “high affinity”; in the experiment on recombinant GST-CSK, “high affinity”.
As to “SHP-2 protein: human SHP-2 overexpressed in Escherichia coli (BL21) from pGEX-6P-1, glutathione agarose purified”, the “amount of bound CSK on p-caveolin-1 peptide conjugated beads” value in [4] is on record as “reduced by adding increasing concentrations of SHP-2 protein”.
Regarding “p-caveolin-1 peptide: Fifty-amino acid-long synthetic peptides of caveolin-1 (1–50 a.a.) conjugated to carboxyl beads using EDC (MSGGKYVDSEGHLYTVPIREQGNIYKPNNKAMADELSEKQVYDAHTKEID; also: phosphorylated, sites not given here; UniProt Q03135 1-50, looked up, fragment)”, in experiment [5], the “binding of SHP-2 to peptide conjugated beads” value is on record as “significantly bound”. For the same compound, in the experiment with recombinant CSK protein, the “binding of CSK to peptide conjugated beads” value is “significantly bound”.

(Values after PMC3954793, “SHP-2 Binds to Caveolin-1 and Regulates Src Activity via Competitive Inhibition of CSK in Response to H2O2 in Astrocytes” (PLoS ONE, 2014).)
